Paper PMC9321718 (Pharmaceuticals, 2022)
≈ marks a conversion by molar mass, not a printed value. Where two headings read alike, the source gives them in different places.

How the values were obtained:
[1] = test system: B. subtilis (NCIB 8054); assay: Agar diffusion test, MIC; assay type: cell-based, Bacillus subtilis; settings: Bacillus subtilis
Procedure: The strains used in this study were Escherichia coli (NCIB 12210) and Bacillus subtilis (NCIB 8054) from National Resource Center All-Russian collection of industrial microorganisms SIC “Kurchatov Institute”). The culture was cultivated for 18–20 h at 37 °C to CFU ≈ 5 × 10^6 – 8 × 10^6 (determined by A600) in liquid nutrient medium Luria–Bertani (pH 7.2): E. coli—without stirring, B. subtilis—with stirring 180 rpm.
(§1) The study of the antibacterial effect of Lev and adjuvants was carried out by (a) agar diffusion test and (b) broth micro-dilution method. (a) A measured 500 µL of 100-fold culture dilution was evenly distributed over a solid nutrient medium (LB, pH 7.2) on a Petri dish. After 20 min, agar disks with a diameter of 9 mm were removed from the cups and 50 µL of the test samples were placed in the formed wells at the required concentration in a sterile PBS buffer (see Section 3.3 (2)). After 30 min, Petri dishes were placed in a 37 °C thermostat. After 24 h, the diameters of the growth inhibition zones were measured. Minimum inhibitory concentrations (MICs) are determined as the infimum of multiple concentrations of an antimicrobial that inhibits the visible growth of a microorganism after overnight incubation. (b) According to the standard broth micro-dilution method, 200 µL of the overnight culture (5 × 10^6 CFU) was placed into a 96 micro-titer plate wells. Then 50 µL of tested samples was added. The range of tested Lev concentration was 4–200 ng/mL, adjuvants concentration was in the range of 0.008–2 mg/mL. Optical density measurements at 600 nm were taken at various times (0, 3, and 18 h) to determine the number of cells. The dependence of CFU (determined by A600) on the concentration of Lev, APAB or terpenoid (briefly X) was approximated according to the Boltzmann equation (Origin software): CFU = (control CFU)/(1 + exp(([X] − MIC50)/constant value)). MIC50 and MIC90 are defined as concentrations at which the inhibition of bacterial growth by 50 and 90% is noticeable, respectively. In other words, the concentration at which the ordinate value (CFU) is equal to 50 or 10% of the control sample minus the background.

[2] = Solubility of X in water and in the presence of MCD/HPCD (UV absorbance)
Procedure: (3) Solubility of X in water C0 = [Xaq] = A/(ε · l) was determined by UV absorbance after centrifugation of samples (10 min, 10,000× g). l = 1 cm. ε—molar absorbance coefficient (Figure 1C).

[3] = test system: B. subtilis; assay: Synergy of adjuvant-MCD with Lev-MCD, growth inhibition zones in agar; assay type: cell-based, Bacillus subtilis; settings: for D, diameter of bacterial inhibition zone surrounding Lev–MCD with APAB-MCD: Lev-MCD + X-MCD (1:2), ±0.5; for ϕLev = (D/DLev)^2: ±0.1
Procedure: We obtained complex formulations containing adjuvants-MCD and Lev-MCD. These complexes were referred to as enhanced Lev. The synergy effect was studied at a constant concentration of Lev and a variable concentration of an enhancer. […] Based on the D/DLev ratio, the effectiveness of cooperative antibacterial action (ϕ) of the adjuvant and Lev was calculated. The fractional inhibitory concentration (FIC) parameter was introduced: at a fixed Lev concentration, the FIC of adjuvant corresponds to the minimum fractional adjuvant concentration at which the antibacterial effect was still manifest (MICadjuvant in the presence of Lev). The fractional inhibitory concentration index (FICI) characterizes the ratio of the active Lev and adjuvant concentrations to the MIC values of these substances individually: FICI=[Lev]/MIC(Lev)[…][adjuvant]/MIC(adjuvant) (see Section 3).
The FICI was interpreted as: synergism (<0.35), additivity (0.35–0.75), indifference (0.75–1.4), or antagonism (>1.4). FICI is designed to determine the type of Lev interaction with adjuvants.
as §1, with “After 24 h, the diameters of the growth inhibition zones were measured.” left out, “Optical density measurements at 600 nm were taken at various times (0, 3, and 18 h) to determine the number of cells.” left out, “MIC50 and MIC90 are defined as concentrations at which the inhibition of bacterial growth by 50 and 90% is noticeable, respectively.” left out
The FICI was interpreted as: synergism (<0.35), additivity (0.35–0.75), indifference (0.76–1.4), or antagonism (>1.4). The essence of this expression is to calculate the average change in the effective concentration compared to MIC. Note that the most important parameter corresponds to a decrease in MIC of Lev. However, FICI is designed to determine the type of interaction Lev with adjuvants.

[4] = NCIB8054, B. subtilis 7 × 10^6 CFU, agar diffusion test, inclusion complexes with MCD, LB pH 7.2, 37 °C, 20 h, read-out: MIC
[5] = B. subtilis, CLev 0.4 μg/mL, ±15%
[6] = B. subtilis, CLev 0.7 μg/mL, ±15%
[7] = B. subtilis, CLev 1.5 μg/mL, ±15%

C=CCc1cc(OC)c2c(c1OC)OCO2 [Apiol]
MIC ([1]; NCIB8054, 20 h, pH 7.2): 5300 µg/mL (≈ 23.8 mM)
solubility ([2]; 22 °C, pH 6.2, water): 130 ± 10 µM

C=CCc1ccc(O)c(OC)c1 [Eugenol, 4-allyl-2-methoxyphenol]
MIC [1, 4]: 1000 µg/mL (≈ 6.09 mM)
FICadjuvant ([3]; B. subtilis, CLev 0.4 μg/mL): 0.10 ± 0.01 mg/mL
Type of Interaction between Lev and X ([3]; B. subtilis, CLev 0.4 μg/mL): Synergism (synergism (<0.35))
D, diameter of bacterial inhibition zone surrounding Lev–MCD with APAB-MCD ([3]; B. subtilis, CLev 0.4 μg/mL): 14.5 mm
ϕLev = (D/DLev)^2 ([3]; B. subtilis, CLev 0.4 μg/mL): 1.5
FICI [3, 5]: 0.16
FICadjuvant ([3]; B. subtilis, CLev 0.7 μg/mL): 0.2 ± 0.02 mg/mL
Type of Interaction between Lev and X ([3]; B. subtilis, CLev 0.7 μg/mL): Additivity (additivity (0.35–0.75))
D, diameter of bacterial inhibition zone surrounding Lev–MCD with APAB-MCD ([3]; B. subtilis, CLev 0.7 μg/mL): 16 mm
ϕLev = (D/DLev)^2 ([3]; B. subtilis, CLev 0.7 μg/mL): 1.2
FICI [3, 6]: 0.56
FICadjuvant ([3]; B. subtilis, CLev 1.5 μg/mL): 0.10 ± 0.01 mg/mL
Type of Interaction between Lev and X ([3]; B. subtilis, CLev 1.5 μg/mL): Additivity (additivity (0.35–0.75))
D, diameter of bacterial inhibition zone surrounding Lev–MCD with APAB-MCD ([3]; B. subtilis, CLev 1.5 μg/mL): 19 mm
ϕLev = (D/DLev)^2 ([3]; B. subtilis, CLev 1.5 μg/mL): 1.2
FICI [3, 7]: 0.60
type of interaction with Lev ([3]; Gram-positive cells (B. subtilis)): additivity

CC1CCC(C(C)C)C(O)C1 (stereo not drawn) [Menthol]
MIC [1, 4]: 2600 µg/mL (≈ 16.6 mM)
MIC ([1]; NCIB8054, B. subtilis, agar diffusion test, read-out: MIC): 2.6 µg/mL (≈ 0.0166 mM)
FICadjuvant ([3]; B. subtilis, CLev 0.5 μg/mL): 0.17 ± 0.01 mg/mL
Type of Interaction between Lev and X ([3]; B. subtilis, CLev 0.5 μg/mL): Synergism (synergism (<0.35))
D, diameter of bacterial inhibition zone surrounding Lev–MCD with APAB-MCD ([3]; B. subtilis, CLev 0.5 μg/mL): 18.5 mm
ϕLev = (D/DLev)^2 ([3]; B. subtilis, CLev 0.5 μg/mL): 2.4
FICI ([3]; B. subtilis, CLev 0.5 μg/mL, ±15%): 0.11
FICadjuvant ([3]; B. subtilis, CLev 1 μg/mL): 0.17 ± 0.01 mg/mL
Type of Interaction between Lev and X ([3]; B. subtilis, CLev 1 μg/mL): Synergism (synergism (<0.35))
D, diameter of bacterial inhibition zone surrounding Lev–MCD with APAB-MCD ([3]; B. subtilis, CLev 1 μg/mL): 18 mm
ϕLev = (D/DLev)^2 ([3]; B. subtilis, CLev 1 μg/mL): 1.3
FICI ([3]; B. subtilis, CLev 1 μg/mL, ±15%): 0.23
efficiency parameter ϕ ([3]; B. subtilis, adjuvant-MCD with Lev-MCD): 2.4
FICI ([3]; B. subtilis, with Lev): 0.08–0.11

C=CCc1ccc2c(c1)OCO2 [Safrole]
MIC [1, 4]: 3900 µg/mL (≈ 24 mM)
FICadjuvant ([3]; B. subtilis, CLev 0.4 μg/mL): 0.17 ± 0.02 mg/mL
Type of Interaction between Lev and X ([3]; B. subtilis, CLev 0.4 μg/mL): Synergism (synergism (<0.35))
D, diameter of bacterial inhibition zone surrounding Lev–MCD with APAB-MCD ([3]; B. subtilis, CLev 0.4 μg/mL): 14 mm
ϕLev = (D/DLev)^2 ([3]; B. subtilis, CLev 0.4 μg/mL): 1.4
FICI [3, 5]: 0.08
FICadjuvant ([3]; B. subtilis, CLev 0.7 μg/mL): 0.33 ± 0.03 mg/mL
Type of Interaction between Lev and X ([3]; B. subtilis, CLev 0.7 μg/mL): Synergism (synergism (<0.35))
D, diameter of bacterial inhibition zone surrounding Lev–MCD with APAB-MCD ([3]; B. subtilis, CLev 0.7 μg/mL): 16 mm
ϕLev = (D/DLev)^2 ([3]; B. subtilis, CLev 0.7 μg/mL): 1.1
FICI [3, 6]: 0.28
FICadjuvant ([3]; B. subtilis, CLev 1.5 μg/mL): 0.15 ± 0.02 mg/mL
Type of Interaction between Lev and X ([3]; B. subtilis, CLev 1.5 μg/mL): Synergism (synergism (<0.35))
D, diameter of bacterial inhibition zone surrounding Lev–MCD with APAB-MCD ([3]; B. subtilis, CLev 1.5 μg/mL): 20 mm
ϕLev = (D/DLev)^2 ([3]; B. subtilis, CLev 1.5 μg/mL): 1.4
FICI [3, 7]: 0.27
FICI ([3]; B. subtilis, with Lev): 0.08–0.11
increased solubility of APAB, times ([2]; APAB–MCD molar ratio 1:5 vs water without MCD, UV): 25 times
